The record followed here is PubChem BioAssay AID624437 (The Scripps Research Institute Molecular Screening Center, 2012).

The structures appear in SMILES notation. The source made the active and inactive calls.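 Rule for the calls: active = PP1 inhibition of at least 30% at 50 µM, though none qualified; inactive = the rest.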

For the experiment, the target named is Serine/threonine-protein phosphatase PP1-alpha catalytic subunit (Homo sapiens) (UniProt P62136). In words: PP1alpha phosphatase inhibition, phosphohistone substrate, late-stage follow-up, selectivity assay for PP5 inhibitor project, biochemical, 33P-phosphohistone, radiolabel, single concentration, round 5 (AID 624437). Conditions: purified PP1alpha, 33P-phosphohistone dephosphorylation, scintillation; at 50 µM; hits give high values.
Chain of Serine/threonine-protein phosphatase PP1-alpha catalytic subunit (Homo sapiens) (P62136 whole entry, looked up): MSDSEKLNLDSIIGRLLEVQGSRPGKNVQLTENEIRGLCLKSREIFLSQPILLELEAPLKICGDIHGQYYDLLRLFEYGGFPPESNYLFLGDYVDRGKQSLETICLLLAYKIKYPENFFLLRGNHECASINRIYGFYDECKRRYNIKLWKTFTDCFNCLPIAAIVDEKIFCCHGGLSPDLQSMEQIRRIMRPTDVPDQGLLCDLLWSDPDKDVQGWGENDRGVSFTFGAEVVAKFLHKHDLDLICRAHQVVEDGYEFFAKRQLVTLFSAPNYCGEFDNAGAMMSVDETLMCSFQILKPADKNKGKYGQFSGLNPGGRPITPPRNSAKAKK

In general, inhibition refers to the drop in the measured response relative to a control, in per cent. Regarding `COc1ccc(-c2n[nH]nc2C(=O)O)cc1`, the inhibition is 1.04% (inactive).
The value for `O=C(O)c1n[nH]nc1-c1cccc(F)c1` was 10.3% (inactive); that for `O=C(O)c1n[nH]nc1-c1ccccc1F` was 20.5% (inactive).
The value for `O=C(O)c1n[nH]nc1-c1ccc(F)cc1` was 10.4% (inactive).
Consider `COc1ccccc1-c1n[nH]nc1C(=O)O`, for which the inhibition was 23.3% (inactive).
For the molecule `COc1cccc(-c2n[nH]nc2C(=O)O)c1`, the inhibition is 11.1% (inactive).
The value for `O=C(O)c1n[nH]nc1-c1ccccc1O` was 10.9% (inactive).
